Experimental findings from US20070166712A1, “Cyp2s1 as target for diagnosis and therapy of skin diseases” (UNIVERSITY COURT OF THE UNIVERSITY OF DUNDEE, priority 2003, published 2007) are described below.

Data set [1] has as its target T1, CYP2S1 (Homo sapiens, UniProt Q96SQ9).
T1 construct: made in house; host or cells: E. coli (membrane fraction)
T1 sequence (Q96SQ9 1-504): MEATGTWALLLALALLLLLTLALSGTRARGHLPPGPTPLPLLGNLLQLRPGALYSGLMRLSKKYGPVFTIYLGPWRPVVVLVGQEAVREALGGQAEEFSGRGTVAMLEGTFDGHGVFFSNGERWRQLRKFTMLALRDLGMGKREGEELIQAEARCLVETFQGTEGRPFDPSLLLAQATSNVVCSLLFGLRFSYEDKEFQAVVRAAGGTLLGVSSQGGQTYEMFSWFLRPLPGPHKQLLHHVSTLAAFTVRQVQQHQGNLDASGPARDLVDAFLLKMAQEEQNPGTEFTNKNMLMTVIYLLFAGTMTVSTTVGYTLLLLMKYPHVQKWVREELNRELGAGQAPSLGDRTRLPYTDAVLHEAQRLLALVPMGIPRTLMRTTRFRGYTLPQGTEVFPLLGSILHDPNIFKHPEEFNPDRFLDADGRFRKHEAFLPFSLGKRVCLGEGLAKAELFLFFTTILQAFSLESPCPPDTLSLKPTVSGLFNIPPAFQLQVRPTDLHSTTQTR
The data set is described as follows: atRA metabolism by heterologously expressed CYP2S1 (E. coli membranes co-expressing CYP2S1 and CPR, HPLC). The class given is in vitro ADME. Particulars: NADPH regenerating system. The protocol: (§1) E. Coli membranes co-expressing CYP2S1 and CPR were incubated with atRA as previously described^17. CYP2S1-derived atRA metabolites (FIG. 4A) were separated by HPLC and identified by comparison with the elution profile of human liver microsomes (FIG. 4B). Control incubations were performed in the absence of the NADPH regenerating system (FIG. 4C).
(§2) The CYP2S1 cDNA, a generous gift from Professor Oliver Hankinson, Department of Pathology and Laboratory Medicine, Jonsson Comprehensive Cancer Centre and Molecular Biology Institute, UCLA, Los Angeles was constructed and co-expressed with CPR in E. Coli as previously described^16. CYP2S1 metabolism of atRA was performed using HPLC analysis as previously described^17, using E. coli membranes co-expressing CYP2S1 and CPR and an NADPH regenerating system. Control reactions were performed in the absence of CYP2S1 and in the absence of the NADPH regenerating system. CYP2S1 metabolites were identified by comparison with elution times and UV profiles of atRA metabolites generated by human liver microsomes which had previously been identified using authentic standards.

Data set [2] deals with CYP3A5. In words: Cutaneous expression and regulation by ATRA of additional CYP450s. The class given is in vivo.
Data set [3] has as its system human liver microsomes. The data set is described as follows: atRA metabolism by human liver microsomes (HPLC). The following applies: confirmed with authentic standard. In kind it is in vitro ADME. The protocol: as §1, §2
For orientation: Microsomes from liver hold many membrane-bound enzymes, among them those of drug oxidation.

Data set [4] concerns CYP2S1 mRNA expression. The data set is described as follows: CYP2S1 mRNA expression in skin after topical chemicals (Taqman quantitative real-time RT-PCR). The class given is in vivo, human. The following applies: healthy volunteers, occluded 96 hours on buttock skin, vs control skin. Background: Quantitative PCR measures a nucleic acid by following its amplification.
The subject of data set [5] is CYP1A1 mRNA expression. The data set is described as follows: CYP1A1 mRNA expression in skin of volunteer panel after topical chemicals. In kind it is in vivo, human. Particulars: topical application, data not shown.

Regarding `CC1=C(/C=C/C(C)=C/C=C/C(C)=C/C(=O)O)C(C)(C)CCC1` [atRA, all-trans retinoic acid], in data set [1], the “atRA metabolites produced by CYP2S1” value is 4-OH-RA and 5,6-epoxy RA; the “formation of 4-oxo RA metabolite by CYP2S1” value is given as “did not appear to produce”. Also, the “inducibility of CYP3A5 in human skin” value in data set [2] is on record as “not inducible”. Further, in data set [3], the “formation of 4-oxo RA metabolite by human liver microsomes” value was “produced by human liver microsomes”. The “individuals showing marked CYP2S1 induction (mRNA)” value in data set [4] is 6/14. Further, the “effect on CYP1A1 mRNA expression” value in data set [5] was “suppressed”.
